Measurements from ChEMBL document CHEMBL1201862, “PubChem BioAssay data set” (2004).
Counter-ions that a name gives are not always drawn.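 Growth conditions: 96-well plates. Treatment: test compound, 48 hours, 5 concentrations. Analysis: linear interpolation between bracketing concentrations; unreached endpoints set to highest concentration. GI50 is the concentration that inhibits growth by half.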 Activity calls are given as the source filed them. Cut-off read from the data, not from the text of the source: active = GI50 up to about 1.1 µM and inactive = higher.

Assays:
Assay in all cases: DTP human tumour cell line panel, 48 h
HCC 2998 = system: HCC 2998
KM-20L2 = system: KM-20L2
A549 = system: A549
NCI-H460 = system: NCI-H460
CCRF-CEM = system: CCRF-CEM
SK-MEL-5 = system: SK-MEL-5
COLO 205 = system: COLO 205
SW-620 = system: SW-620
Malme-3M = system: Malme-3M
HT-29 = system: HT-29
HOP-62 = system: HOP-62
IGROV-1 = system: IGROV-1
UACC-62 = system: UACC-62
CAKI-1 = system: CAKI-1
OVCAR-5 = system: OVCAR-5
SN12C = system: SN12C
SK-OV-3 = system: SK-OV-3

Compound | GI50 (HCC 2998) | GI50 (KM-20L2) | GI50 (A549) | GI50 (NCI-H460) | GI50 (CCRF-CEM) | GI50 (SK-MEL-5) | GI50 (COLO 205) | GI50 (SW-620) | GI50 (Malme-3M) | GI50 (HT-29) | GI50 (HOP-62) | GI50 (IGROV-1) | GI50 (UACC-62) | GI50 (CAKI-1) | GI50 (OVCAR-5) | GI50 (SN12C) | GI50 (SK-OV-3)
CSc1nc(Cl)c(Br)c(Sc2nc(N)nc3nc[nH]c23)n1 | 3.79 µM (inactive) | 5.9 µM (inactive) | 19.5 µM (inactive) | 5.07 µM (inactive) | 2.77 µM (inactive) | 12.5 µM (inactive) | 15.7 µM (inactive) | 7.43 µM (inactive) | 13.4 µM (inactive) | 9.86 µM (inactive) | 2 µM (inactive) | 13.5 µM (inactive) | 3.52 µM (inactive) | 3.42 µM (inactive) | 11.8 µM (inactive) |  | 
O=C(/C=C/c1ccccc1Cl)c1ccc(Cl)c(Cl)c1 | 15.5 µM (inactive) | 17.3 µM (inactive) | 19.5 µM (inactive) | 34.5 µM (inactive) | 26.4 µM (inactive) | 18.9 µM (inactive) | > 100 µM (inactive) | 15.1 µM (inactive) | 22.8 µM (inactive) | 19.8 µM (inactive) | 23 µM (inactive) | 12.4 µM (inactive) | 19.1 µM (inactive) | 15.4 µM (inactive) | 17.6 µM (inactive) | > 100 µM (inactive) | 24.5 µM (inactive)
COc1ccc(C(C#N)NNC(=O)c2ccccc2O)cc1OC (centres undefined) |  | 22 µM (inactive) | 0.377 µM (active) | 0.478 µM (active) | 1.21 µM (inactive) | 8.95 µM (inactive) | 35.6 µM (inactive) | 4.56 µM (inactive) | 11.7 µM (inactive) | 30.1 µM (inactive) | 13.2 µM (inactive) | 0.547 µM (active) | 0.31 µM (active) | 0.394 µM (active) | 15.1 µM (inactive) | 0.767 µM (active) | 0.889 µM (active)
COc1ccc2c(c1)CCC1C3(CCCC21C)OCCO3 (centres undefined) | 22.8 µM (inactive) | 19.7 µM (inactive) | 26.9 µM (inactive) | 16.3 µM (inactive) | 16.9 µM (inactive) | 15.6 µM (inactive) | 17.9 µM (inactive) | 33.9 µM (inactive) | 27.9 µM (inactive) | 17.5 µM (inactive) | 13.8 µM (inactive) | 28.8 µM (inactive) | 15.4 µM (inactive) | 34.6 µM (inactive) | 27 µM (inactive) | 16.3 µM (inactive) | 24 µM (inactive)
O=C(CC1(O)C(=O)Nc2c(Cl)cc(Cl)cc21)c1ccc(Br)cc1 (centres undefined) | 39.5 µM (inactive) | 16.8 µM (inactive) | 20.7 µM (inactive) | 38.6 µM (inactive) | 14.9 µM (inactive) | 16.9 µM (inactive) | > 40.7 µM (inactive) | 26.9 µM (inactive) | > 41.3 µM (inactive) | 37.7 µM (inactive) | 20.2 µM (inactive) | 18.2 µM (inactive) | 9.08 µM (inactive) | 16.1 µM (inactive) | 17.2 µM (inactive) | 33.1 µM (inactive) | 27 µM (inactive)
Cc1[nH]c2ccccc2c1C(=O)CC1(O)C(=O)Nc2ccccc21 (centres undefined) | > 100 µM (inactive) | > 100 µM (inactive) | > 100 µM (inactive) | > 100 µM (inactive) | > 100 µM (inactive) | > 100 µM (inactive) | > 100 µM (inactive) | > 100 µM (inactive) |  | > 100 µM (inactive) | > 100 µM (inactive) | > 100 µM (inactive) | > 100 µM (inactive) | > 100 µM (inactive) | > 100 µM (inactive) | > 100 µM (inactive) | > 100 µM (inactive)
N#C/C(=C1\N=NC(N)=C(c2ccc(Cl)cc2)C1=O)c1ccc(Cl)cc1 | > 100 µM (inactive) | > 100 µM (inactive) | > 100 µM (inactive) | > 100 µM (inactive) | > 100 µM (inactive) |  | > 100 µM (inactive) | > 100 µM (inactive) | > 100 µM (inactive) | > 100 µM (inactive) | > 100 µM (inactive) | > 100 µM (inactive) | > 100 µM (inactive) | > 100 µM (inactive) | > 100 µM (inactive) | > 100 µM (inactive) | > 100 µM (inactive)
Cc1nc2c(n1CCO)C(=O)c1ccccc1C2=O | 41.4 µM (inactive) | 33.3 µM (inactive) | 29.4 µM (inactive) | 27.3 µM (inactive) | 27.4 µM (inactive) | 11.3 µM (inactive) | 18.9 µM (inactive) | 32.8 µM (inactive) | 11.8 µM (inactive) | 25.9 µM (inactive) | 28.6 µM (inactive) | 20.3 µM (inactive) | 16.5 µM (inactive) |  |  | 31.4 µM (inactive) | > 100 µM (inactive)
CN(C)C(=S)/N=c1\ssc(=S)n1C1CCCCC1 | 37.1 µM (inactive) | 40.5 µM (inactive) | 22.8 µM (inactive) | 18 µM (inactive) | 0.23 µM (active) | 12.4 µM (inactive) |  | 13.7 µM (inactive) | 23.4 µM (inactive) | 35.7 µM (inactive) | > 100 µM (inactive) | 98.9 µM (inactive) | 10.4 µM (inactive) | 33 µM (inactive) | 74.1 µM (inactive) | 29.4 µM (inactive) | > 100 µM (inactive)
Cc1ccc(NC(=O)CCC/C(CC(=O)c2ccc(Br)cc2)=N/NC(=O)CC#N)cc1 | > 100 µM (inactive) | > 100 µM (inactive) | > 100 µM (inactive) | > 100 µM (inactive) | > 100 µM (inactive) | > 100 µM (inactive) | > 100 µM (inactive) | > 100 µM (inactive) | > 100 µM (inactive) | > 100 µM (inactive) | > 100 µM (inactive) | > 100 µM (inactive) | > 100 µM (inactive) |  | > 100 µM (inactive) | > 100 µM (inactive) | 
CCOC(=O)N1CCN(P(=O)(Nc2ccc3[nH]c(NC(=O)OC)nc3c2)Oc2ccccc2)CC1 (centres undefined) | > 100 µM (inactive) | > 100 µM (inactive) | > 100 µM (inactive) | > 100 µM (inactive) | 86.1 µM (inactive) |  | > 100 µM (inactive) | > 100 µM (inactive) | 31.6 µM (inactive) | > 100 µM (inactive) |  | > 100 µM (inactive) | 51.1 µM (inactive) | > 100 µM (inactive) | > 100 µM (inactive) | > 100 µM (inactive) | > 100 µM (inactive)
CNC(=O)NCCCCC(NC(C)=O)C(=O)NCc1ccccc1 (centres undefined) | > 100 µM (inactive) | > 100 µM (inactive) | > 100 µM (inactive) | > 100 µM (inactive) | > 100 µM (inactive) | > 100 µM (inactive) | > 100 µM (inactive) | > 100 µM (inactive) | > 100 µM (inactive) | > 100 µM (inactive) | > 100 µM (inactive) | > 100 µM (inactive) | > 100 µM (inactive) | > 100 µM (inactive) | > 100 µM (inactive) | > 100 µM (inactive) | > 100 µM (inactive)
C[Si](C)(C)c1ccc(-c2sc(-c3ccc([Si](C)(C)C)s3)c3c2C[Si]2(C3)Cc3c(-c4ccc([Si](C)(C)C)s4)sc(-c4ccc([Si](C)(C)C)s4)c3C2)s1 | > 100 µM (inactive) | > 100 µM (inactive) | > 100 µM (inactive) | > 100 µM (inactive) | > 100 µM (inactive) | > 100 µM (inactive) | > 100 µM (inactive) | > 100 µM (inactive) | > 100 µM (inactive) | > 100 µM (inactive) | > 100 µM (inactive) | > 100 µM (inactive) | > 100 µM (inactive) | > 100 µM (inactive) | > 100 µM (inactive) | > 100 µM (inactive) | > 100 µM (inactive)
COc1cc2c(cc1OC)C(C(CO)CO)N(CC(O)CCl)CC2 (centres undefined) | > 100 µM (inactive) | > 100 µM (inactive) | > 100 µM (inactive) | > 100 µM (inactive) | > 100 µM (inactive) | > 100 µM (inactive) | > 100 µM (inactive) | > 100 µM (inactive) | > 100 µM (inactive) | > 100 µM (inactive) | > 100 µM (inactive) | > 100 µM (inactive) | > 100 µM (inactive) | > 100 µM (inactive) | > 100 µM (inactive) |  | > 100 µM (inactive)
Cc1cccc2[s+]snc12 | > 100 µM (inactive) | > 100 µM (inactive) | > 100 µM (inactive) | > 100 µM (inactive) | 23.9 µM (inactive) | > 100 µM (inactive) | 23.9 µM (inactive) | 24.2 µM (inactive) | 30.5 µM (inactive) | > 100 µM (inactive) | > 100 µM (inactive) | > 100 µM (inactive) | > 100 µM (inactive) | > 78.2 µM (inactive) | > 100 µM (inactive) | > 69.2 µM (inactive) | > 100 µM (inactive)
CC(NC(C)(C)C)C(=O)c1cccc(Cl)c1 (centres undefined) [BUPROPION HYDROCHLORIDE] | > 100 µM (inactive) | > 100 µM (inactive) | > 100 µM (inactive) | > 100 µM (inactive) | > 100 µM (inactive) | > 100 µM (inactive) | > 100 µM (inactive) | > 100 µM (inactive) | > 100 µM (inactive) | > 100 µM (inactive) | > 100 µM (inactive) | > 100 µM (inactive) | > 100 µM (inactive) | > 100 µM (inactive) |  | > 100 µM (inactive) | > 100 µM (inactive)
CCOC(=O)CC(C)C1(C=O)CCCCC1=O (centres undefined) | > 100 µM (inactive) | > 100 µM (inactive) | > 100 µM (inactive) | 60 µM (inactive) | 41.8 µM (inactive) | > 100 µM (inactive) | 29.3 µM (inactive) |  | > 100 µM (inactive) | > 10 µM (inactive) | > 100 µM (inactive) | > 100 µM (inactive) | > 100 µM (inactive) | > 100 µM (inactive) | > 100 µM (inactive) | > 100 µM (inactive) | > 100 µM (inactive)
